{"source": "paper PMC6677754", "about": "“In silico design and optimization of selective membranolytic anticancer peptides” (Scientific Reports, 2019)", "tested_on": "single MCF7 cells", "assay": "Microfluidics chip single-cell experiment", "type": "cell-based, human", "conditions": "single MCF7 cell in microfluidic chip, peptide 50 µM", "protocol": "The AmphiArc2 peptide, the shortest peptide of the low micromolar active peptides, has a high hydrophobic moment (µH = 0.87) and a 180° arc of hydrophobic residues in an idealized helical structure (Fig. 1a). As determined by circular dichroism (CD) spectroscopy, the AmphiArc2 peptide is unstructured in pure water but adopts an alpha-helical structure in a hydrophobic environment (in 50% v/v water:2,2-trifluoroethanol, TFE) (Fig. 1b). […] To further investigate its membranolytic action, we observed the activity of AmphiArc2 on single MCF7 cells entrapped in a microfluidic chip.\nThe resultant sigmoidal curves were analyzed with the drc22 R package using a log-logistic model with 3 fixed parameters to obtain the HC50 values.\nMicrofluidics chip experiments\nSingle cell ACP action was observed on MCF7 cells entrapped in a microfluidic chip following the previously described methodology23. For visualization, cells were stained with calcein-AM at a 1 µM concentration. The calcein-AM penetrates into the cytosol of the cells and it is converted there by intracellular esterases to a fluorescent form that remains encapsulated in the cytosol. […]\nin a microfuidic chip chamber after exposure to the AmphiArc2 peptide at a concentration of 50 µM. […] The loss of the cytosolic fluorescence corresponds to a permeabilization of the cell membrane. […]", "note": "Peptide text beside a SMILES is read from it."}
{"smiles": "CC[C@H](C)[C@H](NC(=O)[C@H](CCCNC(=N)N)NC(=O)[C@H](Cc1c[nH]c2ccccc12)NC(=O)[C@@H](NC(=O)[C@H](CCCCN)NC(=O)[C@H](CCCCN)NC(=O)[C@@H](NC(=O)[C@@H](NC(=O)[C@@H](NC(=O)[C@H](CCCCN)NC(=O)[C@H](Cc1ccccc1)NC(=O)[C@H](CCCCN)NC(=O)[C@H](CCCCN)NC(=O)[C@H](Cc1ccccc1)NC(=O)[C@@H](NC(=O)[C@@H](N)CCCCN)[C@@H](C)CC)[C@@H](C)O)[C@@H](C)CC)[C@@H](C)CC)C(C)C)C(=O)N[C@@H](Cc1ccccc1)C(=O)NCC(=O)N[C@@H](CCCNC(=N)N)C(=O)N[C@@H](Cc1ccccc1)C(N)=O", "note": "[AmphiArc2] (H-KIFKKFKTIIKKVWRIFGRF-NH2)", "values": [{"measurement": "morphological changes in the cell membrane and leakage of the cytosolic components, time after initial contact with the peptide", "setting": "calcein-AM and anti-EpCAM stained, as early as", "value": 30, "unit": "seconds"}, {"measurement": "time after which the encapsulated dye had leaked out, membrane deformations and blebbing", "setting": "calcein-AM stained", "value": 95, "unit": "s"}]}
